Test results as given in patent US11440903B2, “Salt form and crystal form of compound as FGFR4 inhibitor and preparation method thereof” (GUANGDONG ZHONGSHENG PHARMACEUTICAL CO., LTD, priority 2017, dated 2022).
Blank lines part the entries; values can stand above or below the molecule they belong to.

Assay: Solid stability test of the crystal forms (influence factors and acceleration tests; appearance, XRPD, HPLC content and impurities)
Format: physicochemical
Details: for photostability (stability under light radiation), conclusion in words / stability in dark, conclusion in words / stability under acceleration conditions, conclusion in words / thermal stability (high temperature), conclusion in words: conclusion of influence factors and acceleration tests
From the text: A sample of the crystal form A was placed on the bottom of a glass sample bottle, and spread to a thin layer. The sample stored under high temperature, high humidity, and acceleration conditions was placed in a bottle of which the mouth was packed with a pierced aluminum foil to ensure the sample to be sufficiently exposed to ambient air; the sample stored under light radiation conditions was placed at room temperature in a standing bottle of which the mouth was open, the sample was exposed to a light resource, and sampled for detection after being radiated by sufficient energy. Samples were taken and analyzed at various time points, and the test results were compared with the initial test results of 0 day, the inspection items included appearance, content and impurities, and the test results are shown in Table 9.
A sample of the crystal form B (10 mg) was placed on the bottom of a glass sample bottle, and spread to a thin layer. The sample stored under high temperature, high humidity, and acceleration conditions were placed in a bottle of which the mouth was packed with a pierced aluminum foil to ensure the sample to be sufficiently exposed to ambient air; the sample stored under light radiation conditions was placed at room temperature in a standing bottle of which the mouth was open, the sample was exposed to a light resource, and sampled for detection after being radiated by sufficient energy, the control sample stored in dark (open, the whole sample bottle was sealed with aluminum foil to keep the content in dark) and the sample stored under light radiation conditions were placed together to exclude environmental influence on the samples. Samples were taken and analyzed at various time points, and the test results were compared with the initial test results of 0 day, the inspection items included appearance, crystal form, content and impurities, the test results are shown in Table 10.
(§1) A sample of the crystal form C was taken and placed on the bottom of a glass sample bottle, and spread to a thin layer. The sample stored under high temperature, high humidity, and acceleration conditions was placed in a bottle of which the mouth was packed with a pierced aluminum foil to ensure the sample to be sufficiently exposed to ambient air; the sample stored under light radiation conditions was placed at room temperature in a standing bottle of which the mouth was open, the sample was exposed to a light resource, and sampled for detection after being radiated by sufficient energy. Samples were taken and analyzed at various time points, and the test results were compared with the initial test results of 0 day.
as §1, with “D” for “C”
A sample of the crystal form E (10 mg) was taken and placed on the bottom of a glass sample bottle, and spread to a thin layer. […]

[1] = Acceleration test (40° C./relative humidity of 75%, open), 1 month
[2] = Acceleration test (40° C./relative humidity of 75%, open), 10 days
[3] = Acceleration test (60° C./relative humidity of 75%, open), 1 month
[4] = Acceleration test (60° C./relative humidity of 75%, open), 10 days
[5] = High humidity (room temperature/relative humidity of 92.5%, open), 5 days
[6] = High humidity (room temperature/relative humidity of 92.5%, open), 10 days
[7] = High temperature (60° C., open), 5 days
[8] = High temperature (60° C., open), 10 days
[9] = Light radiation (total illumination: 1.2 × 10^6 Lux·hr/near ultraviolet: 200 w·hr/m^2, open), light radiation sample
[10] = Light radiation test, control sample in dark
[11] = Acceleration test (40° C./relative humidity of 75%, open), 2 months
[12] = Acceleration test (40° C./relative humidity of 75%, open), 3 months
[13] = Acceleration test (60° C./relative humidity of 75%, open), 2 months
[14] = Acceleration test (60° C./relative humidity of 75%, open), 3 months

Appearance (0 day (initial)): White | Content (%) (0 day (initial)): 101.51% | Crystal Form (XRPD) (0 day (initial)): form E | Total Impurities (%) (0 day (initial)): 0.44% | Appearance [1]: White | Content (%) [1]: 102.95% | Crystal Form (XRPD) [1]: form E | Total Impurities (%) [1]: 0.33% | Appearance [2]: White | Content (%) [2]: 99.58% | Crystal Form (XRPD) [2]: form E | Total Impurities (%) [2]: 0.35% | Appearance [3]: White | Content (%) [3]: 102.48% | Crystal Form (XRPD) [3]: form E | Total Impurities (%) [3]: 0.40% | Appearance [4]: White | Content (%) [4]: 100.38% | Crystal Form (XRPD) [4]: form E | Total Impurities (%) [4]: 0.37% | Appearance [5]: White | Crystal Form (XRPD) [5]: form E | Appearance [6]: White | Content (%) [6]: 101.24% | Crystal Form (XRPD) [6]: form E | Total Impurities (%) [6]: 0.34% | Appearance [7]: White | Crystal Form (XRPD) [7]: form E | Appearance [8]: White | Content (%) [8]: 100.37% | Crystal Form (XRPD) [8]: form E | Total Impurities (%) [8]: 0.50% | Appearance [9]: White | Content (%) [9]: 98.70% | Crystal Form (XRPD) [9]: form E | Total Impurities (%) [9]: 0.49% | Appearance [10]: White | Content (%) [10]: 100.87% | Crystal Form (XRPD) [10]: form E | Total Impurities (%) [10]: 0.37% | photostability (stability under light radiation), conclusion in words: slight impurity generation | stability in dark, conclusion in words: good stability | stability under acceleration conditions, conclusion in words: superior | thermal stability (high temperature), conclusion in words: superior
Structure (SMILES): C=CC(=O)N[C@H]1COC[C@H]1Nc1ncc(/C=C(\F)c2c(Cl)c(OC)cc(OC)c2Cl)cn1.CS(=O)(=O)O [Crystal Form E]

Appearance (0 day (initial)): Off-white | Content (%) (0 day (initial)): 99.21% | Crystal Form (XRPD) (0 day (initial)): form B | Total Impurities (%) (0 day (initial)): 0.41% | Appearance [1]: Off-white | Content (%) [1]: 99.49% | Crystal Form (XRPD) [1]: form B | Total Impurities (%) [1]: 0.43% | Appearance [11]: Off-white | Crystal Form (XRPD) [11]: form B | Appearance [12]: Off-white | Content (%) [12]: 96.23% | Crystal Form (XRPD) [12]: form B | Total Impurities (%) [12]: 0.31% | Appearance [2]: Off-white | Content (%) [2]: 101.21% | Crystal Form (XRPD) [2]: form B | Total Impurities (%) [2]: 0.43% | Appearance [3]: Off-white | Content (%) [3]: 98.68% | Crystal Form (XRPD) [3]: form B | Total Impurities (%) [3]: 0.42% | Appearance [13]: Off-white | Crystal Form (XRPD) [13]: form B | Appearance [14]: Off-white | Content (%) [14]: 96.71% | Crystal Form (XRPD) [14]: form B | Total Impurities (%) [14]: 0.31% | Appearance [4]: Off-white | Content (%) [4]: 100.91% | Crystal Form (XRPD) [4]: form B | Total Impurities (%) [4]: 0.42% | Appearance [5]: Off-white | Crystal Form (XRPD) [5]: form B | Appearance [6]: Off-white | Content (%) [6]: 101.03% | Crystal Form (XRPD) [6]: form B | Total Impurities (%) [6]: 0.42% | Appearance [7]: Off-white | Crystal Form (XRPD) [7]: form B | Appearance [8]: Off-white | Content (%) [8]: 100.74% | Crystal Form (XRPD) [8]: form B | Total Impurities (%) [8]: 0.42% | Appearance [9]: Off-white | Content (%) [9]: 92.90% | Crystal Form (XRPD) [9]: form B | Total Impurities (%) [9]: 2.21% | Appearance [10]: Off-white | Content (%) [10]: 100.23% | Crystal Form (XRPD) [10]: form B | Total Impurities (%) [10]: 0.42% | photostability (stability under light radiation), conclusion in words: slight impurity generation | stability in dark, conclusion in words: good stability | stability under acceleration conditions, conclusion in words: superior | thermal stability (high temperature), conclusion in words: superior
Structure (SMILES): C=CC(=O)N[C@H]1COC[C@H]1Nc1ncc(/C=C(\F)c2c(Cl)c(OC)cc(OC)c2Cl)cn1 [Crystal Form B]
